# Biological target: T1, human subtype 5 somatostatin receptor (Homo sapiens, UniProt P35346)
# T1 construct: host or cells: CHO cells, stably transfected; membranes prepared by sonication and fractionating centrifugation
# Assay: Radioligand binding to membranes of CHO cells expressing human SSTR5 (125I-labeled 11-Tyr somatostatin-14 tracer)
# Details: Ki calculated from IC50 by Cheng-Prussoff equation
# Procedure: A CHO cell line stably transfected with a plasmid encoding the human subtype 5 somatostatin receptor (GenBank accession number D16827) was obtained from Euroscreen. Cells were cultured and used for binding and functional assays.
# Membranes of these cells were prepared by sonication in the presence of protease inhibitors and subsequent fractionating centrifugation. The protein concentration in the membrane preparation was determined using a commercial kit (BCA kit, Pierce, USA). Membranes were stored at −80° C. until use. After thawing, membranes were diluted in assay buffer (50 mM Tris-HCl at pH 7.4, 5 mM MgCl2 and 0.20% BSA) and subjected to dounce homogenization.
# For binding studies, 0.1 mL membrane suspension, corresponding to app. 6×10^−15 mol receptor, was incubated for 1 h at room temperature with 0.05 nM ^125I-labeled tracer (11-Tyr somatostatin-14, Perkin-Elmer) and either test compounds in varying concentrations or, for the determination of non-specific binding, 0.001 mM non-labeled somatostatin-14. The incubation was stopped by filtration through GF/B glassfiber filters and washing with ice-cold wash buffer (50 mM Tris-HCl at pH 7.4). The bound radioactivity was measured after application of a scintillation cocktail (Microscint 40) and expressed as disintegrations per minute (dpm).
# The receptor concentration was determined in a prior saturation experiment where a fixed, arbitrary amount of membranes was incubated with a concentration range of radio-labeled tracer. This allows estimating the total number of specific binding sites per amount of protein (i.e., Bmax), typically between 1 and 5 pmol/mg.
# The concentration of the test compound required to result in half maximal inhibition of binding of the radio-labeled tracer (IC50) was estimated from a concentration-versus-dpm graph. The binding affinity (Ki) was calculated from the IC50 by applying the Cheng-Prussoff equation for single binding sites.
# T1 sequence (P35346 whole entry): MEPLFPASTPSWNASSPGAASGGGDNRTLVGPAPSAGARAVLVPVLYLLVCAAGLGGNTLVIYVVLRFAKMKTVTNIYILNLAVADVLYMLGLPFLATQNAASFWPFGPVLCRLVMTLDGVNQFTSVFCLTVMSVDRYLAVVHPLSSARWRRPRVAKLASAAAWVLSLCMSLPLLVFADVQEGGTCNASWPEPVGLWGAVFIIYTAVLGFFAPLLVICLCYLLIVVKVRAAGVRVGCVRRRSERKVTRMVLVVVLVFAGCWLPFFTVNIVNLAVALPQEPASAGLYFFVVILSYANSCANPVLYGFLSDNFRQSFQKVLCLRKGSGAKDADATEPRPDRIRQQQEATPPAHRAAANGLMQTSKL
row,SMILES,Ki [µM]
1,"CCOc1cc(CN2CCC(Nc3nc4cc(NC(=O)CC)ccc4o3)CC2)ccc1OC [Example 243, N-{2-[1-(3-ethoxy-4-methoxy-benzyl)-piperidin-4-ylamino]-benzooxazol-5-yl}-propionamide]",0.293
2,"CCOc1cc(CN2CCC(Nc3nc4cc(S(N)(=O)=O)ccc4o3)CC2)cc(OCC)c1-n1cccc1 [Example 129, 2-[1-(3,5-diethoxy-4-pyrrol-1-yl-benzyl)-piperidin-4-ylamino]-benzooxazole-5-sulfonic acid amide]",0.0041
3,"CCOc1cc(CN2CCC(Nc3nc4ccc(Cl)cc4o3)CC2)cc(OCC)c1-n1cccc1 [Example 94, (6-chloro-benzooxazol-2-yl)-[1-(3,5-diethoxy-4-pyrrol-1-yl-benzyl)-piperidin-4-yl]-amine]",0.059

# Source: US7645753B2, “Benzothiazole, thiazolopyridine, benzooxazole and oxazolopyridine derivatives” (Hoffmann-La Roche Inc., priority 2005, dated 2010)
